Results: patent US10294230B2, “3,3-difluoropiperidine carbamate heterocyclic compounds as NR2B NMDA receptor antagonists” (Rugen Holdings (Cayman) Limited, priority 2015, dated 2019)
pIC50, pKi: −log10 of the molar value.

Legend:
human NR1/NR2A = human NR1/NR2A (Homo sapiens (Human), UniProt Q05586+Q12879); test: NR2A antagonist activity, Fluo-4 calcium influx in HEK293 cells; format: cell-based; settings: Table 2.1, glutamate 100 μM, glycine 50 μM
Experimental: (§1) HEK293 cell lines stably expressing cloned human NR1/NR2B and NR1/NR2A, respectively, were established according to standard previously described methods (Hansen et al., Comb. Chem High Throughput Screen. 11:304, 2008). Activation of the NR2A or NR2B subtype of NMDA receptor with glutamate as an agonist and glycine co-agonist on these cells results in calcium influx, which can be monitored with fluorescent indicator Fluo-4.
(§2) For experiments, the cells were seeded onto poly-D-lysine-coated 96-well black plates with clear bottom (Corning) at a density of ˜50,000 cells/well. After overnight culture, the growth medium was removed from the wells and the cells were incubated at 37° C. for 60 min in Hanks buffer containing 4 μM fluo-4-AM (Invitrogen) and 0.1% bovine serum albumin (BSA). After dye-loading, the cells were washed three times with Hanks buffer and incubated for 10 min at room temperature with various concentrations of test compounds prepared in Hanks buffer with 0.1% BSA. The cell plates were placed onto FDSS pCell fluorescence reader (Hamamatsu). After 20 sec reading of background fluorescence, agonist glutamate at final 100 μM and co-agonist glycine at final 50 μM were added to the cells to activate the receptor, and the resulting fluorescence changes were recorded and quantified. Based on the changes in fluorescence intensity, the pharmacological effect of test compounds were analyzed and the IC50 values derived from a non-linear least squares fitting of the concentration-dependent response to a standard logistic equation using Prism (Graphpad, Inc): Amplitude=Max Amplitude/(1+(IC50/[antagonist])^n).

NMDA receptor = test: [3H] MK-801 radioligand binding, rat brain membranes; settings: 2 nM [3H] MK-801
Experimental: (§3) This example describes NMDA receptor binding assays using two different radioligands, [^3H] […] An established binding assay using the non-selective NMDA receptor ligand [^3H] […] The binding assay method using the NR2B selective receptor ligand [^3H] […] This assay serves as a selective measure of NR2B receptor binding activity in native rat brain receptors. Briefly, the brains of Male Wistar rats were homogenized (Polytron) before centrifugation at 40,000×g for 15 minutes at 4° C. After 2 washes, the final pellet was homogenized and stored at −80° C. The protein concentration was determined by Bradford assay.
(§4) Test compounds were solubilized at 10 mM in DMSO. Then the dilutions were performed with a constant solvent concentration (1% DMSO) in the assay.
(§5) After incubation for 4.5 h at room temperature, the assays were filtered on GF/B filters pretreated with 0.3% (v/v) PEI with a Brandel system for [^3H] […] The experiment was performed in duplicate (n=2).

human NR1/NR2B = human NR1/NR2B (Homo sapiens (Human), UniProt Q05586+Q13224); test: NR2B antagonist activity, Fluo-4 calcium influx in HEK293 cells; format: cell-based
Chain of human NR1/NR2B (Q13224 27-1484, other chains not shown): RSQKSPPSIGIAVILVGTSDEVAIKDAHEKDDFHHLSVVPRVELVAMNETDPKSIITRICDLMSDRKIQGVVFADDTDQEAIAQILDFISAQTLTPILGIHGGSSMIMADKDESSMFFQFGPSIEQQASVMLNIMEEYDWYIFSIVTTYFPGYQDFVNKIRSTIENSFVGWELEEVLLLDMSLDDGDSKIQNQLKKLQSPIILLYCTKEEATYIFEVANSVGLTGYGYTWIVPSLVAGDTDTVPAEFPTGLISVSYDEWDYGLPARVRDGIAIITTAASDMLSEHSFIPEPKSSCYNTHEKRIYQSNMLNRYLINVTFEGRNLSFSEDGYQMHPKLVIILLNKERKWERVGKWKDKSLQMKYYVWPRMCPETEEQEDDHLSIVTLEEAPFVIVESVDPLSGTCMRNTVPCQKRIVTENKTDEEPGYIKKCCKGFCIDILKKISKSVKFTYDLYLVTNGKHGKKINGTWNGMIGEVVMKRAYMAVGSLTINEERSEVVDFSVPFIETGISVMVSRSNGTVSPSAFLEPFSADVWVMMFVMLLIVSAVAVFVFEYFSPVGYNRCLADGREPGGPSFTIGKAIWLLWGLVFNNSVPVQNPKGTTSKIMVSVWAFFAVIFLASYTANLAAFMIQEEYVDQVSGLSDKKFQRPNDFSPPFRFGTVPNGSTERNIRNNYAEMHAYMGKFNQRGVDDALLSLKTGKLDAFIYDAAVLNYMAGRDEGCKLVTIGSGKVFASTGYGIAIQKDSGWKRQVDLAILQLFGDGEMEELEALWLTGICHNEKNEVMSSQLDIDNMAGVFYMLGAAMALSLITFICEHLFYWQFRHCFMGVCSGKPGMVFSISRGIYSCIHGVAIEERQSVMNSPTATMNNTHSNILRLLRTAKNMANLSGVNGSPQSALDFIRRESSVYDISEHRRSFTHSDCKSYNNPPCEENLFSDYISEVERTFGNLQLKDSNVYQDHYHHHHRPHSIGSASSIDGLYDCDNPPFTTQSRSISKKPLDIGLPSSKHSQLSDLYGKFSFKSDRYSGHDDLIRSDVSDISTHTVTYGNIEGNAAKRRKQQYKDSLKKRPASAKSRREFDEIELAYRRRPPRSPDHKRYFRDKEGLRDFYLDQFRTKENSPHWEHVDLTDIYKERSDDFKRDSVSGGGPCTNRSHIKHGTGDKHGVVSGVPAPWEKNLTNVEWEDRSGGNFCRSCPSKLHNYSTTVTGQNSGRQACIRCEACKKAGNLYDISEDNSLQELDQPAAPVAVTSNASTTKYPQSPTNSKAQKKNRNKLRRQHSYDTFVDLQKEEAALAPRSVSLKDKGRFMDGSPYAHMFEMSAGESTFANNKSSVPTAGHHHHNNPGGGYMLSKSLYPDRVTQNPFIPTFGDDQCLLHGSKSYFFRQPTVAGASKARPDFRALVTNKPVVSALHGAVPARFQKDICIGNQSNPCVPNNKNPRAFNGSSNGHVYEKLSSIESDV
Experimental: as §1, §2

CYP2D6 = CYP2D6 (Homo sapiens (Human), UniProt P10635); test: CYP P450 enzyme inhibition, pooled human liver microsome; format: in vitro ADME; settings: 10 μM, pooled HLM, dextromethorphan 5 μM
Chain of CYP2D6 (P10635 whole entry): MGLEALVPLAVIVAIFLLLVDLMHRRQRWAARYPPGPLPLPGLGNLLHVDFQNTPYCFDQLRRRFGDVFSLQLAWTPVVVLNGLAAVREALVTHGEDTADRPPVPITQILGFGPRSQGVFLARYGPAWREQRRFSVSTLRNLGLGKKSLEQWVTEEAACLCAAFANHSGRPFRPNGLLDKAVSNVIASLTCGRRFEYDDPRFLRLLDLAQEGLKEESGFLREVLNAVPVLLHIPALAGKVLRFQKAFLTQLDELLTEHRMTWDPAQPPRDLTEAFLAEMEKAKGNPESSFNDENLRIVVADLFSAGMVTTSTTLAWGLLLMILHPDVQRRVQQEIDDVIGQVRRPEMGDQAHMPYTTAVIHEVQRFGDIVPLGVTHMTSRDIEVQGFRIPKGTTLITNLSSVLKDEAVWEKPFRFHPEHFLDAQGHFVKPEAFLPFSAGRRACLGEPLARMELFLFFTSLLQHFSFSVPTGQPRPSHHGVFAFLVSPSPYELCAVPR

hERG channel = hERG channel (Homo sapiens (Human), UniProt Q12809); test: hERG channel inhibition, whole cell patch clamp in HEK293 cells; format: cell-based; settings: 10 μM
Chain of hERG channel (Q12809 whole entry): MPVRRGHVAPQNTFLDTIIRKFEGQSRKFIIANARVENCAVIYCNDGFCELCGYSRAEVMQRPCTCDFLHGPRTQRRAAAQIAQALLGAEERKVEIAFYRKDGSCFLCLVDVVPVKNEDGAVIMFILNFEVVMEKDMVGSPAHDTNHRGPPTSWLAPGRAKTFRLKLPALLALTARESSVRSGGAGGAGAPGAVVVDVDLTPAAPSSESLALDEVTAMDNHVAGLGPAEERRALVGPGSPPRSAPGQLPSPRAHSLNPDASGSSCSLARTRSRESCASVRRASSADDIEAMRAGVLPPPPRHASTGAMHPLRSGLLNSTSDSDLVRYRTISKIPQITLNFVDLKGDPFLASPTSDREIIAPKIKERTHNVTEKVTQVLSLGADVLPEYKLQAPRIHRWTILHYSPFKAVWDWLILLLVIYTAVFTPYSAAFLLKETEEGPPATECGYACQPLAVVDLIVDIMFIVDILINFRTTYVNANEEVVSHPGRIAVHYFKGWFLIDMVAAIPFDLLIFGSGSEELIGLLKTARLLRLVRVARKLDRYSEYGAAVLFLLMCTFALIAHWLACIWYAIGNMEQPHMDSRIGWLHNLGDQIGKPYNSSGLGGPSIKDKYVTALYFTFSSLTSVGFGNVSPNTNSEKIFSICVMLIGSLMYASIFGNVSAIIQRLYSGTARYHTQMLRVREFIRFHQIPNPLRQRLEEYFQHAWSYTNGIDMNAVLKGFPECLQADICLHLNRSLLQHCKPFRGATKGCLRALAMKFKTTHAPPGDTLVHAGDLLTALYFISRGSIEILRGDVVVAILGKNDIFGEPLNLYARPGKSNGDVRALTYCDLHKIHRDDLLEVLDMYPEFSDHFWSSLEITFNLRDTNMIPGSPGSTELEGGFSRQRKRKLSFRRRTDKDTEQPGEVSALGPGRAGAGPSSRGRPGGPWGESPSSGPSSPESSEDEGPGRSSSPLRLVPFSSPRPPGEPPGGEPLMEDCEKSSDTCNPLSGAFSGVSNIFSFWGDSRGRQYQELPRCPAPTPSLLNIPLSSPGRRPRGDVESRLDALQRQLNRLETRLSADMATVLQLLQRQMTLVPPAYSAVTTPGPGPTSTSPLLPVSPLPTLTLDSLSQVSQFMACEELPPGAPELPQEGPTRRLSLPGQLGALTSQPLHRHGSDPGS

NR2B receptor = NR2B receptor (Rattus norvegicus (Rat), UniProt P35439+Q00960); test: [3H] (E)-N1-(2-methoxybenzyl)-cinnamidine radioligand binding, rat brain membranes; settings: for displacement of [3H] (E)-N1-(2-methoxybenzyl)-cinnamidine at the NR2B receptor high affinity site: rat brain membranes
Chain of NR2B receptor (Q00960 27-1482, other chains not shown): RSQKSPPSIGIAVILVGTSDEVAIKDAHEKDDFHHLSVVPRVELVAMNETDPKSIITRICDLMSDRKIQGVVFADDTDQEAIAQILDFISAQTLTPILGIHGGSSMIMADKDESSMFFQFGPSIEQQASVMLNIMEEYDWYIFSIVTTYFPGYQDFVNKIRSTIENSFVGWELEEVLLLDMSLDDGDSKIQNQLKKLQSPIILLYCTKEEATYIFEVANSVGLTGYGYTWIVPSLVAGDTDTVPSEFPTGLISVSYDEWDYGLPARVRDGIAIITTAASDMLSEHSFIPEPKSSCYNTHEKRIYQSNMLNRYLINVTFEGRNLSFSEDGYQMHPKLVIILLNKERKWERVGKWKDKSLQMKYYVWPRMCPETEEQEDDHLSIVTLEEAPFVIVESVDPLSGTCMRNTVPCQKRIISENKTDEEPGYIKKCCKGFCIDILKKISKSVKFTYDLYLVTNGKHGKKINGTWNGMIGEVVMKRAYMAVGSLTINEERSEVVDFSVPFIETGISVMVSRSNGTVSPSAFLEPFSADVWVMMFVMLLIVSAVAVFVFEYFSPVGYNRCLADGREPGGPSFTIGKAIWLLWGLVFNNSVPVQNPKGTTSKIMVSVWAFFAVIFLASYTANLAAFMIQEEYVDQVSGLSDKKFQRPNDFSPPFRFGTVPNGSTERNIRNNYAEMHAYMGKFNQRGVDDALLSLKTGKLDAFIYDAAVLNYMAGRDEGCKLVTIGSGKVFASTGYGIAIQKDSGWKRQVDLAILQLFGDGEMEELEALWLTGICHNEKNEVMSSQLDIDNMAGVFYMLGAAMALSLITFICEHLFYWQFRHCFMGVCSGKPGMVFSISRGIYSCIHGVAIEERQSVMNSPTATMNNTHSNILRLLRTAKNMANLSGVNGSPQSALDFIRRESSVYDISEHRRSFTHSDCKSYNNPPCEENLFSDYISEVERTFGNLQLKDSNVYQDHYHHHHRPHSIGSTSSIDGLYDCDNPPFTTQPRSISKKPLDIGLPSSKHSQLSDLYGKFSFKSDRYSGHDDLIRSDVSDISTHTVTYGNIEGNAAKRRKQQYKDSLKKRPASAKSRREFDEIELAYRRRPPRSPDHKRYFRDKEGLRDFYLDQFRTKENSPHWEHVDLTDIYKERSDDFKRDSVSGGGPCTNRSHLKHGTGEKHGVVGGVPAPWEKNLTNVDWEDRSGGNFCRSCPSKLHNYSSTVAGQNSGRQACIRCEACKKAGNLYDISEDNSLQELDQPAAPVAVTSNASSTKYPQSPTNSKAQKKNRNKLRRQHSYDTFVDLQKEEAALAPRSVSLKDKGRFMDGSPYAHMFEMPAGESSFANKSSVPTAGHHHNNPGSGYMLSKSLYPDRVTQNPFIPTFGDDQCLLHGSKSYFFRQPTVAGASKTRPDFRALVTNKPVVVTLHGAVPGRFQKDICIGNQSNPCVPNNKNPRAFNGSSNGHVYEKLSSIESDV
Experimental: as §3
[^3H] […] Thus, using [^3H]
as §4, §5

[1] = test system: haloperidol-induced catalepsy; test: Haloperidol-Induced Catalepsy (HIC) Model; format: in vivo; settings: rats
Text: The Haloperidol-induced Catalepsy (HIC) model detects antipsychotic activity and the action of NR2B selective antagonists (Steece-Collier et al. Exp. Neurol. 163: 239, 2000) and was based on methods described by Chermat and Simon (J. Pharmacol., 6, 493-496, 1975). The capacity to induce catalepsy serves as an index of the liability of a test substance to induce extrapyramidal side-effects, in particular Parkinsonism. Antagonism of antipsychotic-induced catalepsy can thus serve to detect anti-Parkinson potential.
Rats were injected with haloperidol (1 mg/kg i.p.) and were examined for catalepsy at 30 minute intervals up to 360 minutes. Presence (+) or absence (−) of catalepsy was assessed by three procedures: 1) imposed crossing of the ipsilateral fore- and hind-limbs; 2) placing the animal in the Buddha position; 3) the tilting board, an automatic device that, 5 seconds after positioning the rat, displaces the rat from a horizontal to vertical position and back while it clings to a wire grid with its front paws. Akinesia and catalepsy were assessed depending on whether or not the animal moves before (akinesia) or during operation of the board (catalepsy).
The 4 scores were cumulated over time to give a global catalepsy score per animal. Six rats were studied per group. The test was performed blind (test substances versus vehicle). Test substances were evaluated at 1 or more doses, administered typically using 0.5% dimethylsulfoxide, 4% hydroxypropyl-b-cyclodextrin water as a vehicle p.o. 15 minutes before haloperidol (i.e. 45 minutes before the first measurement), and compared with a vehicle control group.
Amphetamine (8 mg/kg p.o.), administered 60 minutes before the test (i.e. 90 minutes before the first measurement), was used as reference substance. Data with the test substances were analyzed by comparing treated groups with vehicle control using Kruskal-Wallis Test followed by Mann-Whitney U tests at each time and for cumulated score. Data with the reference substance were analyzed using Mann-Whitney U tests.

[2] = test system: pentylenetetrazole (PTZ) induced convulsions; test: Pentylenetetrazole (PTZ) Seizure Test; format: in vivo; settings: 10 mg/kg p.o., mesylate salt
Experimental: Rats, placed in individual macrolon cages (25×19×13 cm), were injected with pentylenetetrazole (PTZ) (100 mg/kg s.c.). The occurrence and latency of clonic and tonic convulsions and death were noted over a 30 minute period. 15 rats were studied per group. The test was performed blind. […]
Compounds were evaluated typically using 0.5% dimethylsulfoxide, 4% hydroxypropyl-b-cyclodextrin water as a vehicle at 1 or more doses (e.g., 1, 3 and 10 mg/kg), administered p.o. 30 minutes before PTZ, and compared with a vehicle control group. Diazepam (16 mg/kg p.o.), administered 60 minutes before PTZ, was used as reference substance. The experiment was performed over 2 separate sub-experiments with N=7 to 8 animals per group and per sub-experiment. Quantitative data (latencies) with the test substance was analyzed by comparing treated groups with vehicle control using Kruskal-Wallis test followed by Mann-Whitney U test. Quantitative data with the reference substance was analyzed using Mann-Whitney U test. Quantal data (frequencies) was analyzed by comparing treated groups with vehicle control using Fisher's Exact Probability tests (*=p<0.05; **=p<0.01; ***=p<0.001).

[3] = test system: electroconvulsive threshold (tonic convulsions); test: Electroconvulsive Threshold Test (ECT); format: in vivo, rats; settings: rats, 3 and 10 mpk p.o., mesylate salt
Experimental: Test compound E1-8.2 was administered as the free base.
Rats were administered ECS (rectangular current: 0.6 ms pulse width, 1.5 s duration, 200 Hz) via earclip electrodes connected to a constant current shock generator (Ugo Basile: type 7801). Test compounds were administered by oral gavage (p.o.) 1 hour before the test at a dose volume of 5 mL/kg.
Treatment groups of 20 rats were exposed to ECS as follows: The first animal was exposed to 30 mA of ECS. […] (increases of 5 mA) until the first tonic convulsion was observed. Once the first tonic convulsion was observed, the intensity of ECS was decreased by 2 mA for the next animal and then decreased or increased by 2 mA from animal to animal depending on whether the previous animal convulsed or not. If the first animal did convulse (tonic convulsions) within 5 seconds, animal no2 is exposed to 25 mA, etc. . . . (decreases of 5 mA) until the absence of tonic convulsions was observed. At this point, the intensity of ECS was increased by 2 mA for the next animal and then decreased or increased by 2 mA from animal to animal depending on whether the previous animal convulsed or not. The minimum current intensity applied is 5 mA and the maximum 95 mA. The first 5 animals serve to approach threshold current and were not included in the analysis. The results are presented as the mean current intensity administered to the final 15 animals of a group. The test was performed blind. A positive percent change indicates an anticonvulsant effect. A negative percent change indicates a proconvulsant effect. The test substance was evaluated at 4 doses, typically using 0.5% dimethylsulfoxide, 4% hydroxypropyl-b-cyclodextrin water as a vehicle, and administered p.o. 60 minutes before ECS, and compared with a vehicle control group. Diazepam (16 mg/kg p.o.), administered under the same experimental conditions, was used as reference substance. The experiment included 6 groups. Data with the test substance was analyzed by comparing treated groups with vehicle control using one-way ANOVA followed by Dunnett's t tests.

[4] = Table 2.1, HEK293 human NR1/NR2B, glutamate 100 μM, glycine 50 μM

Row | pIC50 (human NR1/NR2A) | partial effect on [3H] MK-801 binding (NMDA receptor) [%] | pIC50 (human NR1/NR2B; [4]) | pIC50 (human NR1/NR2B; Table 2.2) | pIC50 (human NR1/NR2B; Table 2.3) | CYP2D6 @ 10 μM (%) (CYP2D6) | displacement of [3H] (E)-N1-(2-methoxybenzyl)-cinnamidine at the NR2B receptor high affinity site (NR2B receptor) [%] | pKi (NR2B receptor; read-out: Ki at the NR2B receptor high affinity site) | Compound | hERG @ 10 μM (%) (hERG channel) | cumulated score of catalepsy over 360 mins ([1]; 3 mg/kg p.o.) | cumulated score of catalepsy over 360 mins ([1]; 10 mg/kg p.o.) | number of rats showing tonic convulsions, change vs vehicle controls [2] [%] | latency to clonic convulsions, change vs vehicle controls ([2]; rats) | latency to death, change vs vehicle controls ([2]; rats) | latency to tonic convulsions, change vs vehicle controls ([2]; rats) | number of deaths, change vs vehicle controls ([2]; rats) [%] | electroconvulsive threshold, pro-/anticonvulsant activity [3]
1 | < 5.00 | 32 | 7.69 | 7.69 | 7.69 | 19 | 98 | 7.74 | O=C(OCc1ccc(F)cc1)N1CC[C@H](CNc2nccn3cnnc23)C(F)(F)C1 [Compound E1-1.4, R-4-fluorobenzyl 4-(([1,2,4]triazolo[4,3-a]pyrazin-8-ylamino)methyl)-3,3-difluoropiperidine-1-carboxylate] | 11 | – | – | – | – | – | – | – | –
2 | < 5.00 | 49 | 7.84 | 7.84 | 7.84 | 97 | 98 | – | Cc1ccc(COC(=O)N2CC[C@H](CNc3cnccn3)C(F)(F)C2)cc1 [Compound E1-21.2, R-4-methylbenzyl 3,3-difluoro-4-((pyrazin-2-ylamino)methyl)piperidine-1-carboxylate] | 27 | – | – | – | – | – | – | – | –

Row | Compound | pIC50 (human NR1/NR2A) | partial effect on [3H] MK-801 binding (NMDA receptor) [%] | pIC50 (human NR1/NR2B; [4]) | pIC50 (human NR1/NR2B; Table 2.2) | pIC50 (human NR1/NR2B; Table 2.3) | CYP2D6 @ 10 μM (%) (CYP2D6) | displacement of [3H] (E)-N1-(2-methoxybenzyl)-cinnamidine at the NR2B receptor high affinity site (NR2B receptor) [%] | pKi (NR2B receptor; read-out: Ki at the NR2B receptor high affinity site) | hERG @ 10 μM (%) (hERG channel) | cumulated score of catalepsy over 360 mins ([1]; 3 mg/kg p.o.) | cumulated score of catalepsy over 360 mins ([1]; 10 mg/kg p.o.) | number of rats showing tonic convulsions, change vs vehicle controls [2] [%] | latency to clonic convulsions, change vs vehicle controls ([2]; rats) | latency to death, change vs vehicle controls ([2]; rats) | latency to tonic convulsions, change vs vehicle controls ([2]; rats) | number of deaths, change vs vehicle controls ([2]; rats) [%] | electroconvulsive threshold, pro-/anticonvulsant activity [3]
3 | Cc1ccc(COC(=O)N2CC[C@H](CNc3cnc(C)cn3)C(F)(F)C2)cc1 [Compound E1-21.26, R-4-methylbenzyl 3,3-difluoro-4-((5-methylpyrazin-2-ylamino)-methyl)piperidine-1-carboxylate] | < 5.00 | 41 | 7.41 | 7.41 | 7.41 | 32 | 99 | – | 39 | 11.7 | 1.0 | −82 | +45% | +31% | +40% | −82 | anticonvulsant activity
